The values below come from patent US8338598B2, “Herbicidal pyrido[2,3-B]pyrazines and their use as herbicides” (Syngenta Limited, priority 2008, dated 2012).

Type in all cases: in vivo
The test system of test [1] is test plants. The test is described as follows: Example B2 herbicidal action, pre-emergence, overall statement on the test plants. The conditions noted are these: Example B2 protocol, rate not stated, result in words. Here is the method:
(§1) Seeds of a variety of test species were sown in standard soil in pots. After cultivation for one day (pre-emergence) or after 8 days cultivation (post-emergence) under controlled conditions in a glasshouse (at 24/16° C., day/night; 14 hours light; 65% humidity), the plants were sprayed with an aqueous spray solution derived from the formulation of the technical active ingredient in acetone/water (50:50) solution containing 0.5% Tween 20 (polyoxyethelyene sorbitan monolaurate, CAS RN 9005-64-5). The test plants were then grown in a glasshouse under controlled conditions in a glasshouse (at 24/16° C., day/night; 14 hours light; 65% humidity) and watered twice daily. After 13 days, the test was evaluated (10=total damage to plant; 0=no damage to plant).

Test [2] deals with Amaranthus retroflexus. Description: Example B2 herbicidal action, post-emergence, pots in glasshouse. The conditions noted are these: evaluated after 13 days, 10=total damage to plant, 0=no damage to plant. As for the experimental part:
as §1

In the next test the test system is Echinochloa crus-galli. Described as above. The conditions noted are these: evaluated after 13 days, 10=total damage to plant, 0=no damage to plant. Here is the method: as §1
A further test has as its system Ipomea hederaceae. The test is described as above. The conditions noted are these: evaluated after 13 days, 10=total damage to plant, 0=no damage to plant. Here is the method: as §1
Another test concerns Setaria faberi. The description is as above. The settings on record: evaluated after 13 days, 10=total damage to plant, 0=no damage to plant. Here is the method:
as §1

For test [3], the system named is Solanum nigrum. The test is described as above. The conditions noted are these: evaluated after 13 days, 10=total damage to plant, 0=no damage to plant. Here is the method: as §1
Test [4] relates to test plants. Description: Example B2 herbicidal action, post-emergence, overall statement on the test plants. The settings on record: Example B2 protocol, rate not stated, result in words. Here is the method: as §1
The test system of test [5] is Amaranthus retroflexus. Description: Example B1 herbicidal action, post-emergence, seed trays in climatic chamber. The settings on record: 1000 g/ha, evaluated after 9 days, 10=total damage to plant, 0=no damage to plant. Here is the method:
(§2) Seeds of a variety of test species were sown in sterilised standard soil in seed trays each having 96 cells. After cultivation for 8 to 9 days cultivation (post-emergence) under controlled conditions in a climatic chamber (cultivation at 23/17° C., day/night; 13 hours light; 50-60% humidity), the plants were treated with an aqueous spray solution of 1000 mg/l of the active ingredient dissolved in 10% DMSO (dimethyl sulfoxide, CAS RN 67-68-5) as a solvent, equivalent to 1000 g/ha. The plants were grown in the climatic chamber after application at (24/19° C., day/night; 13 hours light; 50-60% humidity) and watered twice daily. After 9 days until the test was evaluated (10=total damage to plant, 0=no damage to plant)

For a further test, the system named is Nasturtium officinale. The test is described as above. The conditions noted are these: 1000 g/ha, evaluated after 9 days, 10=total damage to plant, 0=no damage to plant. Here is the method:
as §2

Test [6] concerns Solanum nigrum. The test is described as above. The settings on record: 1000 g/ha, evaluated after 9 days, 10=total damage to plant, 0=no damage to plant. Here is the method:
as §2

The next test deals with Stellaria media. Described as above. The conditions noted are these: 1000 g/ha, evaluated after 9 days, 10=total damage to plant, 0=no damage to plant. As for the experimental part:
as §2

Take `CC(C)(C)C(=O)Oc1c(-c2c(Cl)cncc2Cl)c(=O)[nH]c2nccnc12` [Compound A8, 2,2-Dimethyl-propionic acid 7-(3,5-dichloro-pyrid-4-yl)-6-oxo-5,6-dihydro-pyrido[2,3-b]pyrazin-8-yl ester]: the “damage to the test plants” value in the test on test plants [1] is recorded as “little or no damage”. For the same compound, the “AMARE, damage to plant” value with Amaranthus retroflexus [2] (1000 g/ha) is on record as 0. For the same compound, in the test with Echinochloa crus-galli (1000 g/ha), the “ECHCG, damage to plant” value was 0. In the test with Ipomea hederaceae (1000 g/ha), the “IPOHE, damage to plant” value is 1. The “SETFA, damage to plant” value with Setaria faberi (1000 g/ha) was 0. The “SOLNI, damage to plant” value in the test with Solanum nigrum [3] (1000 g/ha) is on record as 1.
For the compound `Cc1nc2cc(-c3c(OC(=O)C(C)(C)C)c4nccnc4[nH]c3=O)ccc2o1` [Compound C5], the “damage to the test plants” value in the test with test plants [1] and in the test with test plants [4] was “little or no damage” throughout.
`CC(C)C(=O)Oc1c(-c2ncc(Cl)cc2Cl)c(=O)n(C)c2nccnc12` [Compound A7, Isobutyric acid 7-(3,5-dichloro-pyrid-2-yl)-5-methyl-6-oxo-5,6-dihydro-pyrido[2,3-b]pyrazin-8-yl ester]: in the test on Amaranthus retroflexus [5], the “AMARE, damage to plant” value is listed as 7. In the test on Nasturtium officinale, the “NAAOF, damage to plant” value came out at 7. In addition, the “SOLNI, damage to plant” value with Solanum nigrum [6] was determined as 0. For the same compound, in the test on Stellaria media, the “STEME, damage to plant” value came to 7.
`O=c1[nH]c2nccnc2c(O)c1-c1sc(Cl)nc1C(F)(F)F` [Compound B11]: the “AMARE, damage to plant” value in the test with Amaranthus retroflexus [5] stood at 3. Besides, in the test on Nasturtium officinale, the “NAAOF, damage to plant” value was 5. Also, in the test with Solanum nigrum [6], the “SOLNI, damage to plant” value is on record as 2. Further, the “STEME, damage to plant” value in the test on Stellaria media is recorded as 5.
Take `Cn1nc(-c2c(O)c3nccnc3[nH]c2=O)c(C(F)(F)F)n1` [Compound B27]: the “damage to the test plants” value in the test with test plants [1] is “little or no damage”. Moreover, in the test with Amaranthus retroflexus [2] (1000 g/ha), the “AMARE, damage to plant” value amounted to 0. Further, the “ECHCG, damage to plant” value with Echinochloa crus-galli (1000 g/ha) was 1. Besides, the “IPOHE, damage to plant” value in the test on Ipomea hederaceae (1000 g/ha) is 1. Also, in the test on Setaria faberi (1000 g/ha), the “SETFA, damage to plant” value was 3. Further, the “SOLNI, damage to plant” value in the test with Solanum nigrum [3] (1000 g/ha) is on record as 0.
As for `CCOC(=O)Oc1c(-c2ncc(Cl)cc2Cl)c(=O)n(C)c2nccnc12` [Compound A2, Carbonic acid 7-(3,5-dichloro-pyrid-2-yl)-5-methyl-6-oxo-5,6-dihydro-pyrido-[2,3-b]pyrazin-8-yl ester ethyl ester], the “AMARE, damage to plant” value in the test with Amaranthus retroflexus [5] is 0. The “NAAOF, damage to plant” value with Nasturtium officinale is listed as 5. The “SOLNI, damage to plant” value in the test with Solanum nigrum [6] is 0. The “STEME, damage to plant” value in the test with Stellaria media came out at 5.
With `Cc1cc(-c2c(OC(=O)C(C)C)c3nccnc3[nH]c2=O)n2nc(C)cc2n1` [Compound C4], in the test with Amaranthus retroflexus [5], the “AMARE, damage to plant” value came to 0. The “NAAOF, damage to plant” value in the test with Nasturtium officinale is 0. Also, the “SOLNI, damage to plant” value in the test on Solanum nigrum [6] came out at 2. Moreover, the “STEME, damage to plant” value with Stellaria media is 0.
On to `Cc1nc(Cl)sc1-c1c(OC(=O)C(C)(C)C)c2nccnc2n(C)c1=O` [Compound B3], for which, in the test with Amaranthus retroflexus [5], the “AMARE, damage to plant” value was determined as 0. Also, in the test on Nasturtium officinale, the “NAAOF, damage to plant” value is given as 6. The “SOLNI, damage to plant” value in the test on Solanum nigrum [6] was 0. The “STEME, damage to plant” value in the test on Stellaria media was 2.
Consider `O=c1[nH]c2nccnc2c(O)c1-c1ccc(Cl)nc1Cl` [Compound A13, 7-(2,6-dichloro-pyrid-3-yl)-8-hydroxy-5H-pyrido[2,3-b]pyrazin-6-one], for which the “damage to the test plants” value in the test with test plants [1] is listed as “little or no damage”. The “AMARE, damage to plant” value in the test with Amaranthus retroflexus [2] (1000 g/ha) is 6. Besides, the “ECHCG, damage to plant” value with Echinochloa crus-galli (1000 g/ha) came out at 6. Also, the “IPOHE, damage to plant” value in the test with Ipomea hederaceae (1000 g/ha) is on record as 6. Also, in the test with Setaria faberi (1000 g/ha), the “SETFA, damage to plant” value was 6. The “SOLNI, damage to plant” value with Solanum nigrum [3] (1000 g/ha) is listed as 5.
Take `O=c1[nH]c2nccnc2c(O)c1-c1cc(Cl)sc1Cl` [Compound B12]: the “AMARE, damage to plant” value with Amaranthus retroflexus [5] amounted to 6. Moreover, the “NAAOF, damage to plant” value with Nasturtium officinale turned out to be 0. The “SOLNI, damage to plant” value with Solanum nigrum [6] is 0. In addition, the “STEME, damage to plant” value with Stellaria media came to 0.
As for `Cn1c(=O)c(-c2ccc(Cl)nc2Cl)c(OC(=O)C(C)(C)C)c2nccnc21` [Compound A15, 2,2-Dimethyl-propionic acid 7-(2,6-dichloro-pyrid-3-yl)-5-methyl-6-oxo-5,6-dihydro-pyrido[2,3-b]pyrazin-8-yl ester], the “damage to the test plants” value in the test on test plants [1] is reported as “little or no damage”. Besides, the “AMARE, damage to plant” value with Amaranthus retroflexus [2] (250 g/ha) stood at 2. Besides, in the test with Echinochloa crus-galli (250 g/ha), the “ECHCG, damage to plant” value stood at 3. Moreover, in the test with Ipomea hederaceae (250 g/ha), the “IPOHE, damage to plant” value came to 4. For the same compound, in the test on Setaria faberi (250 g/ha), the “SETFA, damage to plant” value stood at 0. Besides, the “SOLNI, damage to plant” value in the test on Solanum nigrum [3] (250 g/ha) was found to be 4.
With `Cc1nc2cc(-c3c(OC(=O)C(C)(C)C)c4nccnc4n(CC(F)F)c3=O)ccc2o1` [Compound C6], the “damage to the test plants” value in the test on test plants [1] is on record as “little or no damage”. Also, in the test on Amaranthus retroflexus [2] (1000 g/ha), the “AMARE, damage to plant” value is 3. Further, in the test on Echinochloa crus-galli (1000 g/ha), the “ECHCG, damage to plant” value amounted to 0. In addition, the “IPOHE, damage to plant” value in the test with Ipomea hederaceae (1000 g/ha) was found to be 0. Besides, the “SETFA, damage to plant” value in the test with Setaria faberi (1000 g/ha) amounted to 0. Besides, the “SOLNI, damage to plant” value in the test on Solanum nigrum [3] (1000 g/ha) was found to be 2.
Regarding `Cc1noc(-c2c(O)c3nccnc3n(C)c2=O)n1` [Compound B5, 8-hydroxy-5-methyl-7-(3-methyl-1,2,4-oxadiazol-5-yl)-5H-pyrido[2,3-b]pyrazin-6-one], the “AMARE, damage to plant” value with Amaranthus retroflexus [5] was found to be 3. Also, the “NAAOF, damage to plant” value with Nasturtium officinale is 0. The “SOLNI, damage to plant” value in the test with Solanum nigrum [6] is reported as 0. Also, the “STEME, damage to plant” value in the test on Stellaria media is listed as 0.
As to `CCn1c(=O)c(-c2sc(Cl)nc2C)c(OC(=O)C(C)(C)C)c2nccnc21` [Compound B4], the “AMARE, damage to plant” value with Amaranthus retroflexus [5] is 0. Besides, the “NAAOF, damage to plant” value with Nasturtium officinale worked out at 8. In addition, the “SOLNI, damage to plant” value with Solanum nigrum [6] came out at 3. Also, in the test on Stellaria media, the “STEME, damage to plant” value is listed as 2.
Take `Cc1nc(Cl)sc1-c1c(OC(=O)C(C)C)c2nccnc2n(C)c1=O` [Compound B2, isobutyric acid 7-(2-chloro-4-methyl-thiazol-5-yl)-5-methyl-6-oxo-5,6-dihydro-pyrido[2,3-b]pyrazin-8-yl ester]: the “AMARE, damage to plant” value in the test on Amaranthus retroflexus [5] was 0. In the test on Nasturtium officinale, the “NAAOF, damage to plant” value was 5. Moreover, the “SOLNI, damage to plant” value with Solanum nigrum [6] came to 0. In addition, the “STEME, damage to plant” value in the test with Stellaria media worked out at 0.
Consider `CC(C)C(=O)Oc1c(-c2c(C(F)(F)F)nn(C)c2OC(F)F)c(=O)[nH]c2nccnc12` [Compound B23, isobutyric acid 7-(5-difluoromethoxy-1-methyl-3-trifluoromethyl-1H-pyrazol-4-yl)-6-oxo-5,6-dihydro-pyrido[2,3-b]pyrazin-8-yl ester], for which, in the test with test plants [1], the “damage to the test plants” value is reported as “little or no damage”. Besides, the “AMARE, damage to plant” value in the test on Amaranthus retroflexus [2] (250 g/ha) amounted to 3. For the same compound, the “ECHCG, damage to plant” value in the test on Echinochloa crus-galli (250 g/ha) was determined as 2. The “IPOHE, damage to plant” value with Ipomea hederaceae (250 g/ha) came to 2. Further, the “SETFA, damage to plant” value with Setaria faberi (250 g/ha) is given as 4. Further, the “SOLNI, damage to plant” value in the test on Solanum nigrum [3] (250 g/ha) was found to be 1.
Consider `CCn1c(=O)c(-c2ncc(Cl)cc2Cl)c(OC(=O)C(C)C)c2nccnc21` [Compound A6, isobutyric acid 7-(3,5-dichloro-pyrid-2-yl)-5-ethyl-6-oxo-5,6-dihydro-pyrido[2,3-b]pyrazin-8-yl ester], for which the “AMARE, damage to plant” value with Amaranthus retroflexus [5] worked out at 2. In the test on Nasturtium officinale, the “NAAOF, damage to plant” value is given as 5. The “SOLNI, damage to plant” value with Solanum nigrum [6] was 0. Besides, the “STEME, damage to plant” value in the test with Stellaria media is 3.
